Experimental data published in PMC3877285, “A New Strategy for Enhancing the Oral Bioavailability of Drugs with Poor Water-Solubility and Low Liposolubility Based on Phospholipid Complex and Supersaturated SEDDS” (PLoS ONE, 2013).
Values joined by “and” are separate entries in the source; they are usually repeats but may differ in a detail not shown here. Equal values may be shown once.

Assays:
[1] = In vitro lipolysis study; type: in vitro ADME; details: lipolysis medium pH 6.5, pancreatic lipase, 37°C, 20 mg scutellarin equivalent, n = 3
Protocol: In vitro lipolysis studies were performed as previously described, [22] with minor modifications. Briefly, lipolysis medium was prepared in advance, containing 5 mM bile salt, 2 mM trizma maleate buffer, 1.25 mM phosphatidyl choline, and 150 mM sodium chloride, and was adjusted to pH 6.5 with 0.1 M NaOH. Then according to the single-dosage of commercial oral solution detailed as 70 mg scutellarin administrated into 900 mL GI medium, scutellarin powder, SPC, conventional SEDDS and super-SEDDS with a dose of 20 mg (equivalent to scutellarin) were dispersed in 250 mL warmed lipolysis medium (37°C), with a stirring rate of 100 rpm. After that, lipolysis was initiated by adding 50 mL freshly prepared pancreatic lipase solution (2000 TBU/mL, pH 6.5, 37°C), then controlled by constantly pumping 0.15 M CaCl2 with a rate of 0.25 mL/min. Over the lipolysis period, pH value was maintained at 6.5 by a pH-stat device (902 Titrando, Metrohm, Switzerland). At pre-determined time intervals (5, 10, 20, 30, 45, 60, 90, 120 min), 5 mL digested medium was taken and filtered by 0.45 µm polypropylene membrane. The filtered samples were immediately diluted 10 times with acetonitrile to stop lipolysis and induce protein precipitation. At last, the diluted samples were centrifuged at 10,000 rpm for 10 min (Centrifuge 5810R, Eppendorf, Germany), and subsequently analyzed by HPLC (as mentioned later).

[2] = set-up: method as in PMID 16269273; details: cited from earlier work
[3] = In vivo pharmacokinetics after oral dosing; details: male, Sprague-Dawley, rat, plasma, 40 mg/kg equivalent to scutellarin, SD rats, n = 5, mean ± SD
Protocol: 20 male SD rats (300∼350 g) were fasted but allowed free access to water for 12 h, then divided randomly into 4 groups for the pharmacokinetics experiments of scutellarin powder, SPC, conventional SEDDS and Super-SEDDS. In order to avoid failure detection of plasma drug, the various formulations were orally administrated to rats at a dose of 40 mg/kg, according to the highest dosage of commercial oral solution, with a ceiling volume of 10 mL/kg when dispersed by purified water. The blood samples of 0.5 mL were collected in a 1.5 mL heparin treated EP tube from the orbital venous prior to the dose and at 0.5, 1, 2, 3, 4, 5, 6, 8, 10, 12, 24 and 36 h after the dose. The plasma was immediately isolated from whole blood by centrifugation (4000 rpm, 10 min) at room temperature and then stored in a −80°C freezer until analysis.
An HPLC analysis system (HP 1100 series, Agilent Technologies, Wilmington, Germany) of a quaternary pump, an autosampler and a UV detector with an ODS-C18 column (250 mm×4.6 mm i.d., Sepax Technologies Inc., Delaware, USA), was used for the determination of scutellarin. The mobile phase was a mixture of methanol, acetonitrile and 50 mM KH2PO4, at a ratio of 22∶15:63 (v/v/v), with pH of 2.5 adjusted by phosphoric acid. The detection was carried out at a wavelength of 335 nm, with a flow rate of 1.0 mL/min at room temperature.
200 µL of thawed plasma was removed to a 10 mL EP tube. 50 µL of internal standard working solution (20 µg/mL of rutin in methanol) was added and subsequently acidified by 100 µL of phosphoric acid (10 wt %) for 10 min. Then, 3 mL of ethyl acetate was infused for extracting scutellarin from plasma. After 30 min vortex, samples were centrifuged at 4000 rpm for 10 min, and the isolated supernatant was concentrated under nitrogen gas flow in bath of 40°C. Before HPLC detection, it needed to be re-dissolved by 100 µL of HPLC mobile phase and centrifuged at 10,000 rpm for 5 min. The whole analytical methodology including plasma treatment and HPLC detection was validated by accuracy and precision (see Table 2) as previously described.
The plasma data was analyzed in batches by DAS 2.0 (Mathematical Pharmacology Professional Committee of China, Shanghai, China). Peak plasma concentration (Cmax) and the time to reach Cmax (Tmax) were based on measured values. Area under the curve (AUC0-t) was calculated via a trapezoidal area method. […] All values were expressed as the mean ± standard deviation. The significant differences between each group were determined by one way analysis of variance (ANOVA) using the statistical package for social sciences software (SPSS® version 17.0, SPSS Inc., Shanghai, China), with the significance defined as p<0.05 and high significance as p<0.001.

[4] = Ex vivo intestinal absorption, everted intestinal sac; type: in vitro ADME, Sprague-Dawley (SD) rats; details: everted rat jejunum sac, 50 µg/mL scutellarin
Protocol: An everted intestinal sac experiment, modified according to the method previously described, was adopted to evaluate the ex vivo intestinal absorption of scutellarin. Kreb-Ringer’s (K–R) solution, containing 342.0 mM NaCl, 6.7 mM KCl, 5.9 mM CaCl2·2H2O, 5.3 mM MgCl2, 59.5 mM NaHCO3, 2.1 mM NaH2PO4 and 5.5 mM glucose, was prepared in advance. Half was cooled in 4°C refrigerator and the rest was warmed in a 37°C water bath. Scutellarin powder, SPC, conventional SEDDS and Super-SEDDS were dispersed in warmed K–R solution with a concentration of 50 µg/mL scutellarin, approximate to the lowest released concentration of drug during the lipolysis test. Male Sprague-Dawley (SD) rats were fasted overnight and then anesthetized with an intraperitoneal injection of chloral hydrated (10%, w/v) at a dose of 0.4 mL per 100 g. After dissection of the abdominal wall, the jejunum (21 cm from the pylorus) was carefully isolated without any mesentery, clipped into segments of 10 cm, and quickly rinsed in cooled K–R solution. […] After the tests, the length and width of the intestinal segments were measured for the calculation of uptake amount per unit area.

Q: For `O=C(O)[C@H]1O[C@@H](Oc2cc3oc(-c4ccc(O)cc4)cc(=O)c3c(O)c2O)[C@H](O)[C@@H](O)[C@@H]1O` [Scutellarin powder, Scutellarin], which cumulative dissolution percentage [1] is on record?
A: 70% and 70.1±3.2%

Q: And the pKa [2]?
A: 3.29

Q: What about the AUC(0-t) [3] of the same molecule?
A: 2670 ± 404 ng·h/mL

Q: What about the Cmax [3] of the same molecule?
A: 178 ± 35 ng/mL

Q: And the Tmax [3]?
A: 5.2 ± 0.8 h

Q: What about the half-life ([3]; read-out: T1/2z (converted)) of the same molecule?
A: 34.8 ± 22.8 h

Q: What about the “intestinal absorption (cumulative)” value [4] of the same molecule?
A: 0.04 µg/cm^2
